Test results from patent US9255100B2 (BAYER INTELLECTUAL PROPERTY GMBH, priority 2010, dated 2016).

biological target: T1, N-terminally GST-tagged human full length recombinant Mps-1 kinase (Homo sapiens, UniProt P33981); assay: Mps-1 kinase assay (TR-FRET); assay type: biochemical; conditions: Mps1 IC50 [nM], 10 μM ATP, 1 μM peptide substrate, 60 min at 22° C.
T1 construct: N-terminally GST-tagged human full length recombinant Mps-1 kinase; purchased Invitrogen, Karslruhe, Germany PV4071
T1 sequence (P33981 1-857): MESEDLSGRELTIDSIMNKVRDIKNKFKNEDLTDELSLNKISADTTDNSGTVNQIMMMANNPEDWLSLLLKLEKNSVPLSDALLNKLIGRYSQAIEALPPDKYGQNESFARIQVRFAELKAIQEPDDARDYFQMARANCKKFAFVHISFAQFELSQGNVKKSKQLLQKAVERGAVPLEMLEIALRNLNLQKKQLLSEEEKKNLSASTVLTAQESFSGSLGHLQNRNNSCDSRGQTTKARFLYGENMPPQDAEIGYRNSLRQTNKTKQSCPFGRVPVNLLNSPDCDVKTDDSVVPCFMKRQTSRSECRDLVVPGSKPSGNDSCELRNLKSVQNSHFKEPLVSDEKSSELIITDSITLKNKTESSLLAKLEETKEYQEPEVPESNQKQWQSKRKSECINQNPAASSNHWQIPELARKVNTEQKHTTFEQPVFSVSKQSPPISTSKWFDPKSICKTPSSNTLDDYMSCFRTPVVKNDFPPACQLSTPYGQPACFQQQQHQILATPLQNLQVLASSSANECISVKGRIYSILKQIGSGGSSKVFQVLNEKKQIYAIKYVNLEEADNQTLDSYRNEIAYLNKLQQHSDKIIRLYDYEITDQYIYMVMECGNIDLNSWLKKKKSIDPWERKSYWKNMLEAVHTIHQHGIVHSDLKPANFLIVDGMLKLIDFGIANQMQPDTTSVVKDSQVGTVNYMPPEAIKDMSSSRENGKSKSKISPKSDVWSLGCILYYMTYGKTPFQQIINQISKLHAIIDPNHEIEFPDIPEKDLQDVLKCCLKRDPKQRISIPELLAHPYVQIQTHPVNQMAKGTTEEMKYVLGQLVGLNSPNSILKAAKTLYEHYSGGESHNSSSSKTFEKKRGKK
Method in brief: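 GST-Mps-1 (full length, N-term tag) ~1 nM final, linear-range adjusted per lot; biotinylated peptide substrate. Detection: Eu-anti-pSer/Thr donor → SA-XLent acceptor TR-FRET, 1 h, 22° C. Inhibition of kinase activity.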

Going from `Cc1cc(-c2cnc3c(NCCC(F)(F)F)cc(Oc4ccc(Cl)cc4)nn23)ccc1C(=O)NC1CC1` [Example 267, 4-{6-(4-chlorophenoxy)-8-[(3,3,3-trifluoropropyl)amino]imidazo[1,2-b]pyridazin-3-yl}-N-cyclopropyl-2-methylbenzamide] to `CCNC(=O)c1ccc(-c2cnc3c(NCCC(F)(F)F)cc(Oc4ccc(Cl)cc4)nn23)cc1C` [Example 559, 4-{6-(4-chlorophenoxy)-8-[(3,3,3-trifluoropropyl)amino]imidazo[1,2-b]pyridazin-3-yl}-N-ethyl-2-methylbenzamide], the IC50 rises from 0.3 nM to 0.6 nM (2-fold).

Compared with `Cc1cc(-c2cnc3c(NCC(C)(C)O)cc(Nc4ccc(F)cc4Cl)nn23)ccc1C(=O)NC1CC1` [Example 405, 4-{6-[(2-chloro-4-fluorophenyl)amino]-8-[(2-hydroxy-2-methylpropyl)amino]imidazo[1,2-b]pyridazin-3-yl}-N-cyclopropyl-2-methylbenzamide], `COc1cc(F)ccc1Nc1cc(NCC(C)(C)O)c2ncc(-c3ccc(C(=O)NC4CC4)c(C)c3)n2n1` [Example 432, N-cyclopropyl-4-{6-[(4-fluoro-2-methoxyphenyl)amino]-8-[(2-hydroxy-2-methylpropyl)amino]imidazo[1,2-b]pyridazin-3-yl}-2-methylbenzamide] is 23-fold higher in IC50: 0.2 nM for the first, 4.6 nM for the second. The first is the more potent here.

Compared with `Cc1cc(-c2cnc3c(NCC(C)(C)O)cc(-c4ccncc4)nn23)ccc1C(=O)NC1CC1` [Example 230, N-cyclopropyl-4-{8-[(2-hydroxy-2-methylpropyl)amino]-6-(pyridin-4-yl)imidazo[1,2-b]pyridazin-3-yl}-2-methylbenzamide], `Cc1cc(-c2cnc3c(NCC(C)(C)O)cc(Oc4ccncc4)nn23)ccc1C(=O)NC1CC1` [Example 332, N-cyclopropyl-4-{8-[(2-hydroxy-2-methylpropyl)amino]-6-(pyridin-4-yl-oxy)imidazo[1,2-b]pyridazin-3-yl}-2-methylbenzamide] is 9.9-fold higher in IC50: 2.7 nM for the first, 26.8 nM for the second.

Going from `CC(C)(O)CNc1cc(Oc2ccccc2)nn2c(-c3ccc(C(=S)NC4CC4)cc3)cnc12` [Example 243, N-cyclopropyl-4-{8-[(2-hydroxy-2-methylpropyl)amino]-6-phenoxyimidazo[1,2-b]pyridazin-3-yl}benzenecarbothioamide] to `CC(C)(O)CNc1cc(Oc2cccc(F)c2)nn2c(-c3ccc(C(=S)NC4CC4)cc3)cnc12` [Example 244, N-cyclopropyl-4-{6-(3-fluorophenoxy)-8-[(2-hydroxy-2-methylpropyl)amino]imidazo[1,2-b]pyridazin-3-yl}benzenecarbothioamide], the IC50 falls from 0.9 nM to 0.3 nM (3-fold).

Compared with `Cc1cc(F)cc(Sc2cc(NCC(C)(C)O)c3ncc(-c4ccc(C(=O)NC5CC5)c(C)c4)n3n2)c1` [Example 67, N-cyclopropyl-4-{6-[(3-fluoro-5-methylphenyl)sulfanyl]-8-[(2-hydroxy-2-methylpropyl)amino]imidazo[1,2-b]pyridazin-3-yl}-2-methylbenzamide], `Cc1cc(-c2cnc3c(NCC(C)(C)O)cc(Sc4c(F)cccc4F)nn23)ccc1C(=O)NC1CC1` [Example 218, N-cyclopropyl-4-{6-[(2,6-difluorophenyl)sulfanyl]-8-[(2-hydroxy-2-methylpropyl)amino]imidazo[1,2-b]pyridazin-3-yl}-2-methylbenzamide] is 37-fold higher in IC50: 0.1 nM for the first, 3.7 nM for the second. The first is the more potent here.

First: Cc1cc(-c2cnc3c(NCC(C)(C)O)cc(Sc4cnccn4)nn23)ccc1C(=O)NC1CC1 [Example 412, N-cyclopropyl-4-{8-[(2-hydroxy-2-methylpropyl)amino]-6-(pyrazin-2-ylsulfanyl)imidazo[1,2-b]pyridazin-3-yl}-2-methylbenzamide]
Second: Cc1cc(-c2cnc3c(NCC(C)(C)O)cc(Oc4cccc(C#N)c4)nn23)ccc1C(=O)NC1CC1 [Example 82, 4-{6-(3-Cyanophenoxy)-8-[(2-hydroxy-2-methylpropyl)amino]imidazo[1,2-b]pyridazin-3-yl}-N-cyclopropyl-2-methylbenzamide]
The IC50 of the first is 64-fold higher: 19.2 nM for the first, 0.3 nM for the second. The second is the more potent here.

First: CC(C)CNc1cc(-c2cccc(C(=O)NC(C)C)c2)nn2c(-c3ccc(C(=O)NC4CC4)cc3)cnc12 [Example 134, 3-{3-[4-(Cyclopropylcarbamoyl)phenyl]-8-[(2-methylpropyl)amino]imidazo[1,2-b]pyridazin-6-yl}-N-(propan-2-yl) benzamide]
Second: CSc1cccc(Oc2cc(NCC(C)(C)O)c3ncc(-c4ccc(C(=O)NC5CC5)c(C)c4)n3n2)c1F [Example 458, N-cyclopropyl-4-{6-[2-fluoro-3-(methylsulfanyl)phenoxy]-8-[(2-hydroxy-2-methylpropyl)amino]imidazo[1,2-b]pyridazin-3-yl}-2-methylbenzamide]
The IC50 of the first is lower: under 1 nM for the first, 1.1 nM for the second.

Compared with `Cc1cc(-c2cnc3c(NCCC(F)(F)F)cc(Oc4cccc(F)c4)nn23)ccc1C(=O)NCC(F)(F)C(F)(F)F` [Example 555, 4-{6-(3-fluorophenoxy)-8-[(3,3,3-trifluoropropyl)amino]imidazo[1,2-b]pyridazin-3-yl}-2-methyl-N-(2,2,3,3,3-pentafluoropropyl)benzamide], `CCNC(=O)c1ccc(-c2cnc3c(NCCC(F)(F)F)cc(Oc4cccc(F)c4)nn23)cc1C` [Example 552, N-ethyl-4-{6-(3-fluorophenoxy)-8-[(3,3,3-trifluoropropyl)amino]imidazo[1,2-b]pyridazin-3-yl}-2-methylbenzamide] is 47-fold lower in IC50: 9.4 nM for the first, 0.2 nM for the second.

First: Cc1cc(-c2cnc3c(NCC(C)(C)O)cc(Nc4ccc(CCN)cc4)nn23)ccc1C(=O)NC1CC1 [Example 435, 4-(6-{[4-(2-aminoethyl)phenyl]amino}-8-[(2-hydroxy-2-methylpropyl)amino]imidazo[1,2-b]pyridazin-3-yl)-N-cyclopropyl-2-methylbenzamide]
Second: Cc1cc(-c2cnc3c(NCCN(C)C)cc(Oc4cccc(F)c4)nn23)ccc1C(=O)NC1CC1 [Example 487, N-cyclopropyl-4-[8-{[2-(dimethylamino)ethyl]amino}-6-(3-fluorophenoxy)imidazo [1,2-b]pyridazin-3-yl]-2-methylbenzamide]
The IC50 of the first is 16-fold higher: 1.6 nM for the first, 0.1 nM for the second.

`Cc1cc(-c2cnc3c(NCCC(F)(F)F)cc(Oc4cccc(F)c4F)nn23)ccc1C(=O)NC1CC1` [Example 258, N-cyclopropyl-4-{6-(2,3-difluorophenoxy)-8-[(3,3,3-trifluoropropyl)amino]imidazo[1,2-b]pyridazin-3-yl}-2-methylbenzamide] and `Cc1cc(-c2cnc3c(NCCCS(=O)(=O)O)cc(Oc4cccc(F)c4)nn23)ccc1C(=O)NC1CC1` [Example 547, 3-({3-[4-(cyclopropylcarbamoyl)-3-methylphenyl]-6-(3-fluorophenoxy)imidazo[1,2-b]pyridazin-8-yl}amino)propane-1-sulfonic acid] are the same in IC50: 0.2 nM for the first, 0.2 nM for the second.

Compared with `CNC(=O)c1ccc(-c2cnc3c(NCCOC)cc(Oc4ccccc4)nn23)cc1C` [Example 587, 4-{8-[(2-methoxyethyl)amino]-6-phenoxyimidazo[1,2-b]pyridazin-3-yl}-N,2-dimethylbenzamide], `CC(C)(O)CNc1cc(-c2ccncc2)nn2c(-c3ccc(-c4cnc(C5CC5)[nH]4)cc3)cnc12` [Example 9, 1-({3-[4-(2-Cyclopropyl-1H-imidazol-5-yl)phenyl]-6-(pyridin-4-yl)imidazo[1,2-b]pyridazin-8-yl}amino)-2-methylpropan-2-ol] is 7.8-fold higher in IC50: 3.2 nM for the first, 25 nM for the second.
